Experimental data published in patent US8076321B2, “Compositions for treatment of systemic mastocytosis” (priority 2005, dated 2011).
pIC50: −log10 of the molar value. Converted amounts (≈) assume the structure as drawn. “And” between values parts separate entries of the source, which are not always exact repeats. Identical values can stand only once. “Also recorded” adds a separate entry of the source. Like-named read-outs stand apart in the source and are kept apart here.

Columns and labels:
HMC-1.1 cells [1] = experiment: cells; conditions: Homo sapiens, read-out: IC50, 3H-thymidine uptake in HMC-1.1 cells
HMC-1.2 cells [2] = experiment: cells; conditions: Homo sapiens, read-out: IC50, 3H-thymidine uptake in HMC-1.2 cells
[3] = target: T1, KIT V560G (HMC-1.1 cells) (Homo sapiens, UniProt P10721, V560G); experiment: KIT phosphorylation by immunoprecipitation and Western blotting in HMC-1.1 cells; type: cell-based; conditions: 1 μM, 4 hours
T1 construct: endogenous in cells; host or cells: HMC-1.1 (subclone of the human mast cell leukemia line HMC-1)
T1 sequence (P10721 26-976 V560G): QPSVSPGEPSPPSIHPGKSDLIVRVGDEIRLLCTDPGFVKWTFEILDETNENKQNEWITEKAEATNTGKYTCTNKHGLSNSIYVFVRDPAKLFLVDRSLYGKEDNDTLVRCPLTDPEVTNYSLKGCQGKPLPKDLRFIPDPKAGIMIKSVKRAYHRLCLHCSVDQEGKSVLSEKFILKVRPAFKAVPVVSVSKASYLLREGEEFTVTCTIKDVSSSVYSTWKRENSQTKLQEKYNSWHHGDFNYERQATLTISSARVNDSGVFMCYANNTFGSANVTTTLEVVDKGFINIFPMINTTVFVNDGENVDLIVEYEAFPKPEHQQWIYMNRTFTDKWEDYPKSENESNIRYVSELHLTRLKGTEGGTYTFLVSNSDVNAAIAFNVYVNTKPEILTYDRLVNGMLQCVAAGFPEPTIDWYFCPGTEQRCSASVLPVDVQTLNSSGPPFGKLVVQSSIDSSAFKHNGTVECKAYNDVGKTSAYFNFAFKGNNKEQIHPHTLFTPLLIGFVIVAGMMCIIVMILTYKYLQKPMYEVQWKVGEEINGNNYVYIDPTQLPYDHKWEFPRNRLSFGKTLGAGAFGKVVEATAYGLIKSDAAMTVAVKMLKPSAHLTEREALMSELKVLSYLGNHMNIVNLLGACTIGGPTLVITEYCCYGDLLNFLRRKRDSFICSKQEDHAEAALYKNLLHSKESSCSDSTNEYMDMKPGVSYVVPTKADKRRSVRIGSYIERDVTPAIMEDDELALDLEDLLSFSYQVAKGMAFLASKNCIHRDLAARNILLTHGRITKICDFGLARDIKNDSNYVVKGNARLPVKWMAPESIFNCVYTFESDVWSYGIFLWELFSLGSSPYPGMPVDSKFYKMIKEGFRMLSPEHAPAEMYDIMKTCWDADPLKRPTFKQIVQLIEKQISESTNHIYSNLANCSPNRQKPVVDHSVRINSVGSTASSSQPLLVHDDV
Experimental: (§1) In case of Ton.Kit.wt cells, KIT phosphorylation is induced by adding rhSCF (100 ng/ml). Immunoprecipitation (IP) and Western blotting are performed as described previously.^32 In brief, cells are washed at 4° C. and resuspended in RIPA buffer (1 ml buffer per 10^8 cells) consisting of 50 mM Tris, 150 mM sodium chloride (NaCl), 1% nonidet P40 (NP-40), 0.25% deoxycholic acid, 0.1% sodium dodecyl sulfate (SDS), 1 mM ethylene-diamine-tetraacetic acid (EDTA), 1 mM sodium fluoride (NaF), 1 mM phenylmethylsulfonyl fluoride (PMSF) and 1 mM sodium orthovanadate (Na3VO4). After incubation in RIPA buffer supplemented with proteinase inhibitor cocktail (Roche) for 30 minutes at 4° C. (vortexed vigorously every 5 minutes), lysates are centrifuged to remove insoluble particles. For IP, lysates from 1×10^7 cells are incubated with anti-KIT antibody SR1^37 (kindly provided by Dr. V. Broudy, University of Washington, Seattle, Wash.) or with the anti-KIT antibody 1C1^38 (kindly provided by Dr. H.-J. Bühring, University of Tübingen, Germany) and protein G Sepharose beads (Amersham) in IP-buffer (50 mM Tris-Cl, pH 7.4, 150 mM NaCl, 100 mM NaF, and 1% NP40) at 4° C. overnight. Then, beads are washed 3 times in IP buffer. […] Membranes are blocked for 1 hour in 5% blocking reagent (Roche) and are then incubated with anti-KIT antibody 1C1 or with the monoclonal antibody 4G10 (Upstate Biotechnology, Lake Placid, N.Y.) directed against tyrosine-phosphorylated proteins, at 4° C. overnight. Antibody reactivity is made visible by sheep anti-mouse IgG antibody and Lumingen PS-3 detection reagent (both from Amersham), and a CL-Xposure film (Pierce Biotechnology, Rockford, Ill.).
(§2) In case of Ton.Kit.wt cells, KIT phosphorylation was induced by adding rhSCF (100 ng/ml). […]

[4] = tested on: Ton.Kit.wt cells (Ba/F3 with inducible wt KIT); experiment: cells; conditions: Mus musculus, BaF3, 48 h, read-out: IC50, SCF-dependent growth of doxycycline-exposed Ton.Kit.wt cells
HMC-1.2 cells [5] = experiment: Cell surface antigen expression on HMC-1.2 cells by flow cytometry; type: cell-based, human; conditions: 24 hours
Experimental: After incubation with drugs, HMC-1 cells are washed and subjected to single color flow cytometry using PE-conjugated antibodies against MC antigens known to be overexpressed on neoplastic MC in SM (compared to normal MC) and/or are expressed at an early stage of mastopoiesis (CD2, CD13, CD63, CD117, CD164, CD203c).^45-47 Flow cytometry is performed on a FACSan (Becton Dickinson) as described previously.^29
Flow cytometry was performed on a FACScan (Becton Dickinson) as described.^30,37,51

HMC-1.2 cells [6] = experiment: Apoptosis in HMC-1.2 cells (light and electron microscopy, annexin V/PI, Tunel); type: cell-based, human; conditions: 24 hours; for apoptosis in HMC-1.2 cells by light microscopy: various concentrations
HMC-1.1 cells [7] = experiment: Apoptosis in HMC-1.1 cells (light and electron microscopy, Tunel); conditions: 24 hours; for apoptosis in HMC-1.1 cells by Tunel assay: 1 μM; for apoptosis in HMC-1.1 cells by light microscopy: various concentrations
HMC-1.1 cells [8] = tested on: HMC-1.1 cells
[9] = target: T2, wt KIT (Ton.Kit.wt Ba/F3 cells) (Homo sapiens, UniProt P10721); experiment: KIT phosphorylation by immunoprecipitation and Western blotting in Ton.Kit.wt cells; type: cell-based; conditions: 1 μM, 4 hours; doxycycline, SCF 100 ng/ml
T2 construct: expressed in transfected cells
T2 sequence (P10721 26-976): as the sequence (P10721 26-976 V560G) above, with G535V counted along it
Experimental: as §1, §2

HMC-1.2 cells [10] = tested on: HMC-1.2 cells
[11] = tested on: non-transfected Ba/F3 cells; conditions: not shown
HMC-1.2 cells [12] = experiment: Apoptosis in HMC-1.2 cells (light and electron microscopy, annexin V/PI, Tunel); type: cell-based, human; conditions: 1 μM, 24 hours
Experimental: For flow cytometric determination of apoptosis and cell viability, combined annexin V/propidium iodide staining is performed. […] Thereafter, cells are washed in PBS and then are incubated with annexinV-APC (Alexis Biochemicals, Lausen, Switzerland) in binding buffer containing HEPES (10 mM, pH 7.4), NaCl (140 mM), and CaCl2 (2.5 mM). Thereafter, propidium iodide (1 μg/ml) is added. Cells are then washed and analyzed by flow cytometry on a FACSCalibur (Becton Dickinson).

normal bm cells = experiment: 3H-thymidine uptake in normal bone marrow cells (control); type: cell-based, human; conditions: control sample, not shown
Experimental: Both patients gave informed consent before bm puncture. The bm aspirate is obtained from the posterior iliac crest and collected in syringes containing preservative-free heparin. Cells are layered over Ficoll to isolate mononuclear cells (MNC).
In select experiments, HMC-1 cells (both subclones) are incubated with various concentrations of IFNα (0.1-500,000 U/ml) or 2CdA (0.005-10 μg/ml).
The bm aspirate samples were collected in syringes containing preservative-free heparin. Cells were layered over Ficoll to isolate mononuclear cells (MNC). […] Both patients gave written informed consent before bm puncture or blood donation. The study was approved by the local institutional review board and was conducted in accordance with the declaration of Helsinki.
Filters were air-dried, and the bound radioactivity was counted in a β-counter (Top-Count NXT, Packard Bioscience). […] All experiments were performed in triplicates.

[13] = Human trials, Maximum Tolerated Dose; type: in vivo
[14] = 1 μM, dasatinib various concentrations
[15] = PKC412 1 μM, dasatinib various concentrations

SMILES	KIT phosphorylation in HMC-1.1 cells [3]	pIC50 [4]	pIC50 (HMC-1.1 cells [8])	pIC50 (HMC-1.2 cells [10])	expression of CD antigens on HMC-1.2 cells (HMC-1.2 cells [5]; 1 μM)	expression of KIT (CD117) on HMC-1.2 cells (HMC-1.2 cells [5]; [14])	apoptosis in HMC-1.2 cells by light microscopy (HMC-1.2 cells [6])	apoptosis in HMC-1.1 cells by Tunel assay (HMC-1.1 cells [7])	apoptosis in HMC-1.1 cells by light microscopy (HMC-1.1 cells [7])	SCF-induced phosphorylation of KIT in Ton.Kit.wt cells [9]	apoptosis in HMC-1.2 cells by annexinV/propidium iodide flow cytometry and Tunel assay (HMC-1.2 cells [12])	also measured
Nc1nc(Cl)nc2c1ncn2[C@H]1C[C@H](O)[C@@H](CO)O1 [2CdA, 2-chlorodeoxyadenosine]	–	–	–	–	–	–	–	–	–	–	–	IC50 (HMC-1.1 cells [1]): 0.1 to 0.3 µg/mL (≈ 0.35 to 1.05 µM); IC50 (HMC-1.2 cells [2]): 0.01 to 0.02 µg/mL (≈ 0.035 to 0.07 µM)
Cc1cn(-c2cc(NC(=O)c3ccc(C)c(Nc4nccc(-c5cccnc5)n4)c3)cc(C(F)(F)F)c2)cn1 [AMN107, 4-Methyl-3-[[4-(3-pyridinyl)-2-pyrimidinyl]amino]-N-[5-(4-methyl-1H-imidazol-1-yl)-3-(trifluoromethyl)phenyl]benzamide]	strongly reduced KIT phosphorylation	6.52 to 7.52	8.00 to 8.52 and 8.00 to 8.30	5.30 to 6.00	no significant effects	slight decrease	induce apoptosis in both HMC-1 subclones in a dose-dependent manner	potent apoptosis-inducing effects only in HMC-1.1 cells	induce apoptosis in both HMC-1 subclones in a dose-dependent manner	decreased the SCF-induced phosphorylation of KIT	–	growth-inhibitory effect on control (non-transfected) Ba/F3 cells [11]: neither doxycycline (1 μg/ml), nor the TK inhibitors (imatinib, PKC412, AMN107), showed growth-inhibitory effects
CO[C@@H]1[C@H](N(C)C(=O)c2ccccc2)C[C@H]2O[C@]1(C)n1c3ccccc3c3c4c(c5c6ccccc6n2c5c31)C(=O)NC4 [PKC412, N-[(9S,10R,11R,13R)-2,3,10,11,12,13-hexahydro-10-methoxy-9-methyl-1-oxo-9,13-epoxy-1H,9H-diindolo[1,2,3-gh:3′,2′,1′-1m]pyrrolo[3,4-j][1,7]benzodiazonin-11-yl]-N-methylbenzamide]	decreased phosphorylation of KIT	–	–	–	–	slight decrease	induce apoptosis in both HMC-1 subclones in a dose-dependent manner; also recorded: also found to induce apoptosis in both HMC-1 subclones	also induced apoptosis in both cell lines; also recorded: produced apoptosis in most HMC-1.1 and HMC-1.2 cells	induce apoptosis in both HMC-1 subclones in a dose-dependent manner; also recorded: also found to induce apoptosis in both HMC-1 subclones	decreased the SCF-induced phosphorylation of KIT	induce apoptosis in HMC-1.2; also recorded: also induced apoptosis in both cell lines; also recorded: produced apoptosis in most HMC-1.1 and HMC-1.2 cells	expression of CD203c on HMC-1.2 cells (HMC-1.2 cells [5]; 1 μM): no significant effects; expression of CD63 on HMC-1.2 cells (HMC-1.2 cells [5]; PKC412 1 μM or various, dasatinib various concentrations): significant decrease; also recorded: dose-dependently decreased expression of CD63; expression of CD2 on HMC-1.2 cells (HMC-1.2 cells [5]; [15]): significant decrease; expression of CD13 on HMC-1.2 cells (HMC-1.2 cells [5]; [15]): no significant effects; expression of CD164 on HMC-1.2 cells (HMC-1.2 cells [5]; [15]): significant decrease; apoptosis in HMC-1.2 cells by electron microscopy (HMC-1.2 cells [6]; 1 μM): produce apoptosis in HMC-1.2 cells; effect on 3H-thymidine uptake in normal bm cells (normal bm cells): showed no effect; also recorded: no effects; Maximum Tolerated Dose (MTD), total dose [13]: 225 mg/day

Second part, led by results:

KIT phosphorylation in HMC-1.1 cells [3]	pIC50 [4]	pIC50 (HMC-1.1 cells [8])	pIC50 (HMC-1.2 cells [10])	SMILES	expression of CD antigens on HMC-1.2 cells (HMC-1.2 cells [5]; 1 μM)	expression of KIT (CD117) on HMC-1.2 cells (HMC-1.2 cells [5]; [14])	apoptosis in HMC-1.2 cells by light microscopy (HMC-1.2 cells [6])	apoptosis in HMC-1.1 cells by Tunel assay (HMC-1.1 cells [7])	apoptosis in HMC-1.1 cells by light microscopy (HMC-1.1 cells [7])	SCF-induced phosphorylation of KIT in Ton.Kit.wt cells [9]	apoptosis in HMC-1.2 cells by annexinV/propidium iodide flow cytometry and Tunel assay (HMC-1.2 cells [12])	also measured
–	8.00 to 9.00	–	6.30 to 6.70	Cc1nc(Nc2ncc(C(=O)Nc3c(C)cccc3Cl)s2)cc(N2CCN(CCO)CC2)n1 [dasatinib, reference compound]	–	–	–	–	–	–	–	–
reduced KIT phosphorylation	–	7.52 to 8.00	–	Cc1ccc(NC(=O)c2ccc(CN3CCN(C)CC3)cc2)cc1Nc1nccc(-c2cccnc2)n1 [imatinib, reference compound]	no significant effects	slight decrease	showed no effects on HMC-1.2 cells	induced apoptosis only in HMC-1.1 cells; also recorded: potent apoptosis-inducing effects only in HMC-1.1 cells	produce apoptosis in HMC-1.1 cells	decreased the SCF-induced phosphorylation of KIT	showed no effects on HMC-1.2 cells	antiproliferative effect on HMC-1.2 cells (HMC-1.2 cells [10]; 48 hours): no significant antiproliferative effects
